Results published in US5045566A, “Novel imidate insecticides” (ICI Americas Inc., priority 1989, dated 1991).

Key:
Format in all cases: in vivo
[1] = tested on: Black Bean Aphid [Aphis fabae (Scop.)]; test: Black bean aphid spray test on nasturtium (BBA), 48 hours; settings: percent of test compound in sprayed solution
In short: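 LC50, given as percent test compound in the sprayed liquid, was calculated from dosage-mortality curves using concentrations from 0.05% downward. Sprays in 50:50 acetone-water went to runoff on ~5 cm nasturtiums carrying 25-50 aphids of mixed ages, one day after infestation. Deaths were counted 48 h later under greenhouse conditions.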

[2] = tested on: Housefly [Musca domestica]; test: Housefly contact mortality in dishes (HF), 48 hours; settings: μg of test compound per 25 female flies
In short: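 LC50, as μg compound per 25 female flies, comes from dosage-mortality curves with doses from 100 μg downward. Residues were made by evaporating acetone plus 0.01% peanut oil in dishes, onto which 1-2-day-old females were caged; deaths were counted after 48 hours.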

[3] = tested on: Maize weevil [Sitophilus zeamais (Motschulsky)]; test: Maize weevil on dipped corn seeds (MW), 48 hours; settings: percent in solution, adult weevils
In short: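 LC50, given as percent of compound in dipping solution, comes from dosage-mortality curves over concentrations descending from 0.01%. Four corn seeds soaked 2-3 s in 50:50 acetone:water solution were dried and held with 10 adult weevils, about 25° C, mortality read after 48 h.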

[4] = tested on: Cabbage Looper [Trichoplusia ni (Hubner)]; test: Cabbage looper leaf dip (CL), 3-5 days; settings: percent in solution, second-instar larvae
In short: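 Squash cotyledons dipped in test solution (acetone-water 50-50, ≤0.1%), dried, offered to 5 second-instar larvae; mortality after 3-5 days gives LC50.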

[5] = tested on: Tobacco Budworm [Heliothis virescens (Fabricius)] eggs; test: Tobacco budworm eggs (TBW-E); settings: percent in solution; 2-day old eggs
In short: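 Step 1: dip 2-day old egg patches in acetone test solutions (top concentration 0.1%). Step 2: hold in dishes with rearing medium at 78° F. Step 3: record mortality after control hatch and feeding.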

SMILES | LC50 BBA [1] [%] | LC50 HF [2] [µg] | LC50 MW [3] [%] | LC50 CL [4] [%] | LC50 TBW E (eggs) [5] [%]
Cc1cccc(N=C(OCc2ccc(F)c(Oc3ccc(Cl)cc3)c2)C(C)C)c1 [Compound 401] | 0.0006 | < 100 | > 0.01 | 0.0017 | 0.04
Cc1ccc(N=C(OCc2cccc(Oc3ccc(F)cc3)c2)C(C)C)cc1Cl [Compound 402] | 0.0006 | < 100 | > 0.01 | > 0.1 | > 0.1
Cc1ccc(N=C(OCc2cccc(Oc3ccc(Cl)cc3)c2)C(C)C)cc1Cl [Compound 403] | 0.001 | < 100 | > 0.01 | > 0.1 | > 0.1
Cc1ccc(N=C(OCc2ccc(F)c(Oc3ccc(Cl)cc3)c2)C(C)C)cc1Cl [Compound 404] | 0.002 | < 100 | > 0.01 | > 0.1 | 0.025
Cc1cccc(N=C(OCc2cccc(Oc3ccc(F)cc3)c2)C(C)C)c1 [Compound 405] | 0.0025 | < 100 | > 0.01 | > 0.1 | > 0.1
Cc1ccc(N=C(OCc2ccc(F)c(Oc3ccc(Cl)cc3)c2)C(C)C)cc1C [Compound 406] | 0.001 | < 100 | > 0.01 | > 0.1 | < 0.1
Cc1cc(N=C(OCc2ccc(F)c(Oc3ccc(Cl)cc3)c2)C(C)C)ccc1Br [Compound 407] | 0.0007 | > 100 | > 0.01 | > 0.1 | 0.05
COc1ccc(N=C(OCc2ccc(F)c(Oc3ccc(F)cc3)c2)C(C)C)cc1Cl [Compound 408] | 0.0005 | < 100 | > 0.01 | 0.0015 | 0.02
COc1ccc(N=C(OCc2ccc(F)c(Oc3ccccc3)c2)C(C)C)cc1Cl [Compound 409] | 0.0005 | < 100 | > 0.01 | 0.0017 | 0.025
COc1ccc(N=C(OCc2ccc(F)c(Oc3ccc(Cl)cc3)c2)C(C)C)cc1Cl [Compound 410] | 0.0025 | < 100 | > 0.01 | > 0.1 | > 0.1
CCc1ccccc1N=C(OCc1cccc(Oc2ccc(F)cc2)c1)C(C)C [Compound 411] | > 0.05 | < 100 | > 0.01 | > 0.1 | > 0.1
COc1ccc(N=C(OCc2ccc(F)c(Oc3ccc(Cl)cc3)c2)C(C)C)cc1 [Compound 412] | 0.0032 | < 100 | > 0.01 | > 0.1 | > 0.1
CC(C)C(=Nc1ccc(F)c(I)c1)OCc1cccc(Oc2ccc(Cl)cc2)c1 [Compound 413] | > 0.05 | < 100 | > 0.01 | 0.0007 | 0.04
CC(C)C(=Nc1ccc(S(C)(=O)=O)cc1)OCc1ccc(F)c(Oc2ccc(F)cc2)c1 [Compound 414] | > 0.05 | < 100 | > 0.01 | 0.0024 | > 0.1
C=C(C)C(=Nc1ccc(F)c(Cl)c1)OCc1ccc(F)c(Oc2ccc(Cl)cc2)c1 [Compound 415] | 0.0007 | < 100 | > 0.01 | 0.00075 | 0.035
C=C(C)C(=Nc1ccc(F)c(Cl)c1)OCc1ccc(F)c(Oc2ccccc2)c1 [Compound 416] | 0.0035 | < 100 | > 0.01 | 0.00027 | 0.018
C=C(C)C(=Nc1ccc(F)c(Cl)c1)OCc1cccc(Oc2ccccc2)c1 [Compound 417] | 0.004 | < 100 | > 0.01 | 0.0008 | 0.04
CC(C)C(=Nc1ccc(OCC(F)(F)F)c(Cl)c1)OCc1cccc(Oc2ccc(F)cc2)c1 [Compound 420] | 0.004 | > 100 | > 0.01 | 0.00075 | 0.05
CC(C)C(=Nc1ccc(OCC(F)(F)F)c(Cl)c1)OCc1cccc(Oc2ccc(Cl)cc2)c1 [Compound 421] | > 0.05 | > 100 | > 0.01 | 0.002 | < 0.1
CC(C)C(=Nc1ccc(OCC(F)(F)F)cc1)OCc1ccc(F)c(Oc2ccccc2)c1 [Compound 422] | > 0.05 | < 100 | > 0.01 | 0.00075 | 0.05
CC(C)C(=Nc1ccc(OCC(F)(F)F)cc1)OCc1cccc(Oc2ccccc2)c1 [Compound 423] | > 0.05 | > 100 | > 0.01 | 0.002 | > 0.1
CC(C)C(=Nc1ccc(OCC(F)(F)F)c(Cl)c1)OCc1ccc(F)c(Oc2ccccc2)c1 [Compound 424] | 0.002 | > 100 | > 0.01 | 0.00038 | 0.035
CC(C)C(=Nc1ccc(OCC(F)(F)F)c(Cl)c1)OCc1cccc(Oc2ccccc2)c1 [Compound 425] | 0.0035 | > 100 | > 0.01 | 0.00075 | > 0.1
CCOc1cccc(N=C(OCc2ccc(F)c(Oc3ccc(F)cc3)c2)C(C)C)c1 [Compound 426] | 0.0012 | > 100 | > 0.01 | 0.002 | > 0.1
CC(C)C(=Nc1ccc(C(F)(F)F)cc1Cl)OCc1cccc(Oc2ccc(F)cc2)c1 [Compound 427] | 0.05 | > 100 | > 0.01 | < 0.1 | > 0.1
CC(C)C(=Nc1ccc(C(F)(F)F)cc1Cl)OCc1ccc(F)c(Oc2ccccc2)c1 [Compound 428] | 0.003 | > 100 | > 0.01 | 0.0017 | > 0.1
CC(C)C(=Nc1ccc(OCC(F)(F)F)c(F)c1)OCc1cccc(Oc2ccc(Cl)cc2)c1 [Compound 429] | 0.005 | > 100 | > 0.01 | 0.0017 | < 0.1
